Measurements: patent US6337346B1 (University of North Carolina at Chapel Hill, priority 1998, dated 2002)
pEC50: −log10 of the molar value. In brackets after ≈: the same amount, converted by molar mass. Like-named read-outs stand apart in the source and are kept apart here. One block for each compound: values may come before it.

Tests used:
[1] = test system: KB; test: Preliminary cytotoxicity testing of 6 and 16 (Table 1); type: cell-based; conditions: Homo sapiens, Table 1, preliminary testing
[2] = test system: HCT-8; test: as above; type: cell-based; conditions: Homo sapiens, Table 1, preliminary testing
[3] = test system: P-399; test: as above; type: cell-based; conditions: Table 1, preliminary testing
[4] = test system: L-1210; test: as above; type: cell-based; conditions: Mus musculus, L1210, Table 1, preliminary testing
[5] = test system: A549; test: as above; type: cell-based; conditions: Homo sapiens, Table 1, preliminary testing
[6] = test system: CAKI-1; test: as above; type: cell-based; conditions: Homo sapiens, Table 1, preliminary testing
[7] = test system: MCF-7; test: as above; type: cell-based; conditions: Homo sapiens, MCF7, Table 1, preliminary testing
[8] = test system: several leukemia cell lines; test: Preliminary cytotoxicity testing, summary in words; type: cell-based
[9] = test system: LOX IMVI; test: NCI in vitro disease-oriented tumor cells screen; type: cell-based, human; conditions: Homo sapiens, Melanoma LOX IMVI, average of at least two testings, read-out: Cytotoxicity log GI50 (converted)
Text: (§1) (Activity is defined as log GI50<−4 where GI50 is the molar concentration causing 50% cell growth inhibition).

[10] = test system: SK-MEL-5; test: NCI in vitro disease-oriented tumor cells screen; type: cell-based, human; conditions: Homo sapiens, Melanoma SK-MEL-5, average of at least two testings, read-out: Cytotoxicity log GI50 (converted)
Text: as §1

[11] = test system: NCI-H23; test: NCI in vitro disease-oriented tumor cells screen; type: cell-based, human; conditions: Homo sapiens, Non-Small Cell Lung Cancer NCI-H23, average of at least two testings, read-out: Cytotoxicity log GI50 (converted)
Text: as §1

[12] = test system: OVCAR-3; test: NCI in vitro disease-oriented tumor cells screen; type: cell-based, human; conditions: Homo sapiens, Ovarian Cancer OVCAR-3, average of at least two testings, read-out: Cytotoxicity log GI50 (converted)
Text: as §1

[13] = test system: MDA-MB-435; test: NCI in vitro disease-oriented tumor cells screen; type: cell-based, human; conditions: Homo sapiens, Breast Cancer MDA-MB-435, average of at least two testings, read-out: Cytotoxicity log GI50 (converted)
Text: as §1

[14] = test system: MDA-N; test: NCI in vitro disease-oriented tumor cells screen; type: cell-based, human; conditions: Homo sapiens, Breast Cancer MDA-N, average of at least two testings, read-out: Cytotoxicity log GI50 (converted)
Text: as §1

[15] = test system: CCRF-CEM; test: NCI in vitro human tumor cell line assay; type: cell-based; conditions: Leukemia CCRF-CEM, Table 3 (numbering of Examples 14-16), average of at least two testings, read-out: Cytotoxicity log GI50 (converted)
[16] = test system: NCI-H460; test: NCI in vitro human tumor cell line assay; type: cell-based; conditions: Non-Small Cell Lung Cancer NCI-H460, Table 3 (numbering of Examples 14-16), average of at least two testings, read-out: Cytotoxicity log GI50 (converted)
[17] = test system: NCI-H552; test: NCI in vitro human tumor cell line assay; type: cell-based; conditions: Non-Small Cell Lung Cancer NCI-H552, Table 3 (numbering of Examples 14-16), average of at least two testings, read-out: Cytotoxicity log GI50 (converted)
[18] = test system: HCT-15; test: NCI in vitro human tumor cell line assay; type: cell-based; conditions: Colon Cancer HCT-15, Table 3 (numbering of Examples 14-16), average of at least two testings, read-out: Cytotoxicity log GI50 (converted)
[19] = test system: SW-620; test: NCI in vitro human tumor cell line assay; type: cell-based; conditions: Colon Cancer SW-620, Table 3 (numbering of Examples 14-16), average of at least two testings, read-out: Cytotoxicity log GI50 (converted)
[20] = test system: SF-539; test: NCI in vitro human tumor cell line assay; type: cell-based; conditions: CNS Cancer SF-539, Table 3 (numbering of Examples 14-16), average of at least two testings, read-out: Cytotoxicity log GI50 (converted)
[21] = test system: SNB-19; test: NCI in vitro human tumor cell line assay; type: cell-based; conditions: CNS Cancer SNB-19, Table 3 (numbering of Examples 14-16), average of at least two testings, read-out: Cytotoxicity log GI50 (converted)
[22] = test system: IGROV1; test: NCI in vitro human tumor cell line assay; type: cell-based; conditions: IGROV-1, Ovarian Cancer IGROV1, Table 3 (numbering of Examples 14-16), average of at least two testings, read-out: Cytotoxicity log GI50 (converted)
[23] = test system: MCF 7; test: NCI in vitro human tumor cell line assay; type: cell-based; conditions: MCF7, Breast Cancer MCF 7, Table 3 (numbering of Examples 14-16), average of at least two testings, read-out: Cytotoxicity log GI50 (converted)
[24] = test system: MCF 7/ADR-RES; test: NCI in vitro human tumor cell line assay; type: cell-based; conditions: MCF7, Breast Cancer MCF 7/ADR-RES, Table 3 (numbering of Examples 14-16), average of at least two testings, read-out: Cytotoxicity log GI50 (converted)
[25] = test system: KB cells; test: Preliminary KB cell assay (cytotoxicity); type: cell-based; conditions: Homo sapiens, numbering of Examples 14-16, read-out: ED50 (the source's name)
Experimental: Many anthraquinones, including mitoxantrone (1), show antineoplastic activity (Zee-Cheng, R. Y.; Podrebarac, E. G; Menon, C. S.; Cheng, C. C. J. Med. Chem. 1979, 22, 501-505). In addition, the natural product 2-acetyl-4H, 9H-naphtho[2,3-b]furan-4,9-dione (2) isolated from Tabebuia cassinoids (Lam.) DC.
The unsubstituted (3), two mono-acetyl (5, 6), and two di-acetyl (9, 10) derivatives were tested for cytotoxicity in a preliminary KB cell assay.

[26] = test system: MOLT-4; conditions: human
[27] = test system: MOLT-4; test: NCI in vitro human tumor cell line assay; conditions: MOLT-4, read-out: Cytotoxicity log GI50 (converted)
[28] = test system: human tumor cell lines; test: NCI in vitro screen, mean over all cell lines tested; conditions: Homo sapiens, read-out: Cytotoxicity log GI50, Mean Value (converted)
Text: as §1

[29] = test system: MALME-3M; test: NCI in vitro disease-oriented tumor cells screen; type: cell-based, human; conditions: Homo sapiens; Melanoma MALME-3M; Table 2; average of at least two testings; read-out: Cytotoxicity log GI50 (converted)
Text: as §1

[30] = test system: M14; test: NCI in vitro disease-oriented tumor cells screen; type: cell-based, human; conditions: Homo sapiens; Melanoma M14; Table 2; average of at least two testings; read-out: Cytotoxicity log GI50 (converted)
Text: as §1

[31] = test system: SK-MEL-2; test: NCI in vitro disease-oriented tumor cells screen; type: cell-based, human; conditions: Homo sapiens; Melanoma SK-MEL-2; Table 2; average of at least two testings; read-out: Cytotoxicity log GI50 (converted)
Text: as §1

[32] = test system: SK-MEL-28; test: NCI in vitro disease-oriented tumor cells screen; type: cell-based, human; conditions: Homo sapiens; Melanoma SK-MEL-28; Table 2; average of at least two testings; read-out: Cytotoxicity log GI50 (converted)
Text: as §1

[33] = test system: UACC-257; test: NCI in vitro disease-oriented tumor cells screen; type: cell-based, human; conditions: Homo sapiens; Melanoma UACC-257; Table 2; average of at least two testings; read-out: Cytotoxicity log GI50 (converted)
Text: as §1

[34] = test system: UACC-62; test: NCI in vitro disease-oriented tumor cells screen; type: cell-based, human; conditions: Homo sapiens; Melanoma UACC-62; Table 2; average of at least two testings; read-out: Cytotoxicity log GI50 (converted)
Text: as §1

[35] = test system: HL-60(TB); test: NCI in vitro disease-oriented tumor cells screen; type: cell-based, human; conditions: Homo sapiens; Leukemia HL-60(TB); Table 2; average of at least two testings; read-out: Cytotoxicity log GI50 (converted)
[36] = test system: OVCAR-8; test: NCI in vitro disease-oriented tumor cells screen; type: cell-based, human; conditions: Homo sapiens; Ovarian Cancer OVCAR-8; Table 2; average of at least two testings; read-out: Cytotoxicity log GI50 (converted)
Text: as §1

[37] = test system: HS 578T; test: NCI in vitro disease-oriented tumor cells screen; type: cell-based, human; conditions: Homo sapiens; Breast Cancer HS 578T; Table 2; average of at least two testings; read-out: Cytotoxicity log GI50 (converted)
Text: as §1

[38] = test system: BT-549; test: NCI in vitro disease-oriented tumor cells screen; type: cell-based, human; conditions: Homo sapiens; Breast Cancer BT-549; Table 2; average of at least two testings; read-out: Cytotoxicity log GI50 (converted)
Text: as §1

[39] = test system: melanoma cell lines; test: NCI in vitro screen, melanoma cell lines as a group; type: cell-based, human; conditions: numbering of Examples 1-13
[40] = test system: human tumor cell lines
Text: as §1

[41] = test system: SK-MEL-2; test: Preliminary cytotoxicity testing of 6 and 16 (Table 1); type: cell-based; conditions: Homo sapiens, Table 1, preliminary testing
[42] = Table 3 (numbering of Examples 14-16)
[43] = Table 2 (numbering of Examples 1-13)

melting point: 244 to 245 °C
SMILES: CC(=O)c1csc2c1C(=O)c1ccccc1C2=O [Compound 6, 3-Acetyl-naphtho[2,3-b]thiophene-4,9-dione]
IC50 [1]: 0.058 µg/mL (≈ 0.226 µM) | IC50 [2]: 0.06 µg/mL (≈ 0.234 µM) | IC50 [3]: < 0.1 µg/mL | IC50 [4]: 0.32 µg/mL (≈ 1.25 µM) | IC50 [5]: 0.048 µg/mL (≈ 0.187 µM) | IC50 [6]: 0.28 µg/mL (≈ 1.09 µM) | IC50 [7]: 0.09 µg/mL (≈ 0.351 µM) | activity against several leukemia cell lines (in words) [8]: significant activity | GI50 [9, 42]: 2340 nM | GI50 [10, 42]: 170 nM | GI50 [11, 42]: 1050 nM | GI50 [12, 42]: 3550 nM | GI50 [13, 42]: 324 nM | GI50 [14, 42]: 933 nM | GI50 [15]: 1550 nM | GI50 [16]: 1320 nM | GI50 [17]: 1740 nM | GI50 [18]: 17400 nM | GI50 [19]: 2190 nM | GI50 [20]: 2040 nM | GI50 [21]: 1780 nM | GI50 [22]: 2450 nM | GI50 [23]: 2090 nM | GI50 [24]: 2880 nM | pEC50 [25]: 5.30 | Cytotoxicity log GI50 [26]: <−8.00 M | GI50 [27]: < 10 nM | GI50 [28]: 2140 nM

SMILES: CC(=O)OC(C)c1cc2c(s1)C(=O)c1c(C(C)OC(C)=O)csc1C2=O (centres unmarked) [Compound 15, 2,7-Bis(1′-acetoxyethyl)-4,8-dihydrobenzo[1,2-b:4,5-b′]dithiophene-4,8-dione]
GI50 [9, 43]: 1580 nM | GI50 [29]: 186 nM | GI50 [30]: 513 nM | GI50 [31]: 1550 nM | GI50 [32]: 1660 nM | GI50 [10, 43]: 631 nM | GI50 [33]: 631 nM | GI50 [34]: 1100 nM | GI50 [35]: 67.6 nM | GI50 [11, 43]: 871 nM | GI50 [12, 43]: 275 nM | GI50 [36]: 457 nM | GI50 [37]: 2090 nM | GI50 [13, 43]: 186 nM | GI50 [14, 43]: 214 nM | GI50 [38]: 2140 nM | potency / selectivity towards melanoma cell lines (in words) [39]: not selective towards melanoma cell lines | melting point: 180 to 182 °C | overall cytotoxicity / potency (in words) [40]: less active in all cell lines | GI50 [28]: 1200 nM

SMILES: O=C1c2ccsc2C(=O)c2sccc21 [Compound 16]
IC50 [1]: 0.05 µg/mL (≈ 0.227 µM) | IC50 [2]: 0.032 µg/mL (≈ 0.145 µM) | IC50 [5]: 0.032 µg/mL (≈ 0.145 µM) | IC50 [6]: 0.11 µg/mL (≈ 0.499 µM) | IC50 [41]: 0.06 µg/mL (≈ 0.272 µM) | IC50 [7]: < 0.016 µg/mL | activity against several leukemia cell lines (in words) [8]: significant activity
